From PubChem BioAssay AID248 (DTP/NCI, 2004)
“And” between values parts separate entries of the source, which are not always exact repeats. Equal entries are not always repeated. Toxic doses and inconclusive results are not listed. No stated cut-off is given here; in the data, active means T/C of 150% or more; inactive means T/C below 125%.

Test system: L1210 leukemia ip in BDF1 mice, survival T/C
Experiment: NCI In Vivo Anticancer Drug Screen. Data for tumor model L1210 Leukemia (intraperitoneal) in B6D2F1 (BDF1) mice
Details: endpoint: mean survival time, higher = longer survival
Procedure, shortened: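 Ratio derived from survival: compound-dosed mice over vehicle-dosed mice, all bearing a transplantable tumor.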

[1] = dose: 100.0 mg/kg/injection, schedule: Q01DX001 (ip), vehicle: carboxymethylcellulose (CMC)
[2] = dose: 200.0 mg/kg/injection, schedule: Q01DX001 (ip), vehicle: carboxymethylcellulose (CMC)
[3] = dose: 400.0 mg/kg/injection, schedule: Q01DX001 (ip), vehicle: carboxymethylcellulose (CMC)
[4] = dose: 50.0 mg/kg/injection, schedule: Q01DX001 (ip), vehicle: saline
[5] = dose: 100.0 mg/kg/injection, schedule: Q01DX001 (ip), vehicle: saline
[6] = dose: 200.0 mg/kg/injection, schedule: Q01DX001 (ip), vehicle: saline
[7] = dose: 400.0 mg/kg/injection, schedule: Q01DX001 (ip), vehicle: saline
[8] = dose: 100.0 mg/kg/injection, schedule: Q01DX001 (ip), vehicle: other
[9] = dose: 200.0 mg/kg/injection, schedule: Q01DX001 (ip), vehicle: other
[10] = dose: 400.0 mg/kg/injection, schedule: Q01DX001 (ip), vehicle: other
[11] = dose: 100.0 mg/kg/injection, schedule: Q01DX009 (ip), vehicle: saline with Tween-80
[12] = dose: 100.0 mg/kg/injection, schedule: Q04DX003 (ip), vehicle: saline with Tween-80
[13] = dose: 200.0 mg/kg/injection, schedule: Q01DX009 (ip), vehicle: saline with Tween-80
[14] = dose: 200.0 mg/kg/injection, schedule: Q04DX003 (ip), vehicle: saline with Tween-80
[15] = dose: 400.0 mg/kg/injection, schedule: Q01DX009 (ip), vehicle: saline with Tween-80
[16] = dose: 400.0 mg/kg/injection, schedule: Q04DX003 (ip), vehicle: saline with Tween-80
[17] = dose: 10.0 mg/kg/injection, schedule: Q01DX001 (ip), vehicle: saline
[18] = dose: 20.0 mg/kg/injection, schedule: Q01DX001 (ip), vehicle: saline

Measured: T/C

O=C(Nc1ccccc1)c1cc(Cl)ccn1
inactive: [1] 100 % of control | [2] 97 % of control | [3] 97 % of control

CC(C)[N+](=O)[O-]
inactive: dose: 62.5 mg/kg/injection, schedule: Q01DX001 (ip), vehicle: Klucel (hydroxypropylcellulose) (HPC) 104 % of control | dose: 125.0 mg/kg/injection, schedule: Q01DX001 (ip), vehicle: Klucel (hydroxypropylcellulose) (HPC) 114 % of control | dose: 250.0 mg/kg/injection, schedule: Q01DX001 (ip), vehicle: Klucel (hydroxypropylcellulose) (HPC) 101 % of control

CCCCCCCNC(=S)NNC(=O)CCCC(=O)NNC(=S)NCCCCCCC
inactive: [4] 98 % of control | [5] 96 % of control | [6] 96 % of control | [7] 90 % of control

Cc1cc(N(CCCl)CCCl)ccc1C=Nc1cccnc1
inactive: dose: 50.0 mg/kg/injection, schedule: Q01DX001 (ip), vehicle: other 100 % of control | [8] 100 % of control | [9] 92 % of control | [10] 94 % of control

O=C1CCC(=O)N1[N+](=O)[O-]
inactive: [4] 95 % of control and 89 % of control | [5] 97 % of control and 101 % of control | [6] 103 % of control and 107 % of control

Fc1ccc(C=Nc2cccc(Cl)c2)cc1
inactive: [11] 95 % of control | [12] 103 % of control | [13] 97 % of control | [14] 93 % of control | [15] 100 % of control | [16] 98 % of control

[Cl][Sn]([Cl])([c]1ccccc1)[c]1ccccc1
inactive: dose: 12.5 mg/kg/injection, schedule: Q01DX001 (ip), vehicle: saline 108 % of control | dose: 25.0 mg/kg/injection, schedule: Q01DX001 (ip), vehicle: saline 96 % of control | [4] 100 % of control

COc1cc(OC)cc(C2N(Cc3ccc(OC)c(OC)c3)CCN2Cc2ccc(OC)c(OC)c2)c1
inactive: [11] 100 % of control | [12] 104 % of control | [13] 108 % of control | [14] 100 % of control | [15] 101 % of control | [16] 98 % of control

Cc1ccc(NC(N)=S)cc1
inactive: dose: 25.0 mg/kg/injection, schedule: Q04DX003 (ip), vehicle: Klucel (hydroxypropylcellulose) (HPC) 107 % of control | dose: 50.0 mg/kg/injection, schedule: Q04DX003 (ip), vehicle: Klucel (hydroxypropylcellulose) (HPC) 98 % of control | dose: 100.0 mg/kg/injection, schedule: Q04DX003 (ip), vehicle: Klucel (hydroxypropylcellulose) (HPC) 101 % of control

CNC(=O)NS(=O)(=O)c1ccc([N+](=O)[O-])cc1
inactive: [1] 95 % of control | [2] 91 % of control | [3] 92 % of control

c1cc(Sc2ccc(OCC3CO3)cc2)ccc1OCC1CO1 (stereo unspecified)
inactive: [8] 94 % of control | [9] 97 % of control | [10] 92 % of control

Clc1ccc(CI)cc1
inactive: dose: 25.0 mg/kg/injection, schedule: Q04DX003 (ip), vehicle: alcohol 106 % of control | dose: 50.0 mg/kg/injection, schedule: Q04DX003 (ip), vehicle: alcohol 98 % of control | dose: 100.0 mg/kg/injection, schedule: Q04DX003 (ip), vehicle: alcohol 98 % of control

O=C(Nc1ccc(S(=O)(=O)NC2CCCCC2)cc1)OC1CCCCC1
inactive: [5] 92 % of control | [6] 90 % of control | [7] 94 % of control

Nc1cc[c]([Hg][Cl])cc1
inactive: dose: 1.0 mg/kg/injection, schedule: Q01DX009 (ip), vehicle: Klucel (hydroxypropylcellulose) (HPC) 97 % of control | dose: 1.0 mg/kg/injection, schedule: Q04DX003 (ip), vehicle: saline 102 % of control | dose: 3.0 mg/kg/injection, schedule: Q01DX009 (ip), vehicle: Klucel (hydroxypropylcellulose) (HPC) 112 % of control | dose: 3.0 mg/kg/injection, schedule: Q04DX003 (ip), vehicle: saline 96 % of control | dose: 6.0 mg/kg/injection, schedule: Q01DX009 (ip), vehicle: Klucel (hydroxypropylcellulose) (HPC) 88 % of control | dose: 6.0 mg/kg/injection, schedule: Q04DX003 (ip), vehicle: saline 95 % of control

COc1ccc(C=NCCN=Cc2ccc(OC)c(OC)c2)cc1OC
inactive: [5] 100 % of control | [11] 101 % of control | dose: 100.0 mg/kg/injection, schedule: Q04DX003 (ip), vehicle: saline 92 % of control | [6] 104 % of control | [13] 95 % of control | dose: 200.0 mg/kg/injection, schedule: Q04DX003 (ip), vehicle: saline 87 % of control | [7] 102 % of control | [15] 95 % of control | dose: 400.0 mg/kg/injection, schedule: Q04DX003 (ip), vehicle: saline 92 % of control

Cc1nc(C(=O)O)c(=O)[nH]c1C
inactive: dose: 50.0 mg/kg/injection, schedule: Q01DX009 (ip), vehicle: water 103 % of control | dose: 100.0 mg/kg/injection, schedule: Q01DX009 (ip), vehicle: water 103 % of control | dose: 100.0 mg/kg/injection, schedule: Q04DX003 (ip), vehicle: water 102 % of control | dose: 200.0 mg/kg/injection, schedule: Q01DX009 (ip), vehicle: water 101 % of control | dose: 200.0 mg/kg/injection, schedule: Q04DX003 (ip), vehicle: water 101 % of control

CCCNCC1OC(OC)C2OC(C)(C)OC12 (stereo unspecified)
inactive: dose: 0.78 mg/kg/injection, schedule: Q01DX009 (ip), vehicle: saline 100 % of control | dose: 1.56 mg/kg/injection, schedule: Q01DX009 (ip), vehicle: saline 96 % of control | dose: 3.12 mg/kg/injection, schedule: Q01DX009 (ip), vehicle: saline 98 % of control | dose: 100.0 mg/kg/injection, schedule: Q01DX005 (ip), vehicle: saline 99 % of control | dose: 100.0 mg/kg/injection, schedule: Q01DX009 (ip), vehicle: saline 88 % of control | dose: 200.0 mg/kg/injection, schedule: Q01DX005 (ip), vehicle: saline 106 % of control | dose: 200.0 mg/kg/injection, schedule: Q01DX009 (ip), vehicle: saline 91 % of control

CCCCCCCCCCCC[N+](C)(C)C(C)Cc1ccccc1 (stereo unspecified)
inactive: [17] 98 % of control | [18] 98 % of control

COc1ccc(Oc2cccc3c2CCN(C)C3)cc1
inactive: dose: 12.5 mg/kg/injection, schedule: Q04DX002 (ip), vehicle: Klucel (hydroxypropylcellulose) (HPC) 102 % of control | dose: 25.0 mg/kg/injection, schedule: Q04DX002 (ip), vehicle: Klucel (hydroxypropylcellulose) (HPC) 115 % of control | dose: 50.0 mg/kg/injection, schedule: Q04DX002 (ip), vehicle: Klucel (hydroxypropylcellulose) (HPC) 97 % of control

c1ccc([P+](Cc2ccco2)(c2ccccc2)c2ccccc2)cc1
inactive: dose: 5.0 mg/kg/injection, schedule: Q01DX001 (ip), vehicle: saline 103 % of control | [17] 97 % of control | [18] 90 % of control | dose: 40.0 mg/kg/injection, schedule: Q01DX001 (ip), vehicle: saline 89 % of control

Cc1ccc(S(=O)(=O)N2CCCC(O)c3ccccc32)cc1 (stereo unspecified)
inactive: [1] 108 % of control | [2] 106 % of control | [3] 116 % of control

Cc1ccc([N+](=O)[O-])cc1NC(=O)NNC(=O)CNC(=O)Nc1ccc(F)cc1
inactive: dose: 25.0 mg/kg/injection, schedule: Q01DX009 (ip), vehicle: saline with Tween-80 94 % of control | dose: 50.0 mg/kg/injection, schedule: Q01DX009 (ip), vehicle: saline with Tween-80 86 % of control | [11] 100 % of control

CC[CH2][Sn]([Cl])([Cl])[CH2]CC
inactive: dose: 0.13 mg/kg/injection, schedule: Q01DX009 (ip), vehicle: saline 98 % of control | dose: 0.25 mg/kg/injection, schedule: Q01DX009 (ip), vehicle: saline 112 % of control | dose: 0.5 mg/kg/injection, schedule: Q01DX009 (ip), vehicle: saline 105 % of control and 108 % of control | dose: 1.0 mg/kg/injection, schedule: Q01DX009 (ip), vehicle: saline 101 % of control | dose: 2.0 mg/kg/injection, schedule: Q01DX009 (ip), vehicle: saline 101 % of control | dose: 4.0 mg/kg/injection, schedule: Q01DX009 (ip), vehicle: saline 104 % of control

Cc1ccc2c(c1)C(=NCCCN=C1C(=O)Nc3ccc(C)cc31)C(=O)N2
inactive: [11] 96 % of control | [12] 93 % of control | [13] 91 % of control | [14] 102 % of control | [15] 98 % of control | [16] 98 % of control
